Measured values: patent US20120264928A1, “THERAPEUTIC PHARMACEUTICAL AGENT FOR DISEASES ASSOCIATED WITH DECREASE IN FUNCTION OF GNE PROTEIN, FOOD COMPOSITION, AND FOOD ADDITIVE” (JAPAN HEALTH SCIENCES FOUNDATION, priority 2009, published 2012)

Key:
[1] = test system: primary cultured cells of myotubes derived from the DMRV model mice; experiment: Amount of NeuAc by HPLC in myotubes from DMRV model mice; type: cell-based; conditions: 10 mM ManNAc, three days; compared with control group (10 mM Glc)
Method: The skeletal muscle tissues collected from the DMRV human patients or the model mice were lightly washed with PBS or Hank's balanced saline and were treated with 0.25% trypsin for 5 minutes. The tissues were finely cut into several millimeters with ophthalmic scissors, were digested with 0.4% collagenase II/0.25% trypsin at 37° C. for 30 minutes, and were left still to collect supernatant. The precipitate was again treated with the enzyme liquid. After being left still, the precipitate was well suspended in a DMEM-Ham's F-12 culture medium. The tissue suspension was passed through a nylon mesh to remove the tissues. The washings and the supernatant were centrifuged to collect cells. […]
In the case that the sample was cultured cells, the cells were washed with PBS three times, and 400 p. […] The fluorescent derivative thus prepared was analyzed with HPLC (JASCO Corp.) using 0.05 to 5 nmol/μl Neu5Ac and Neu5Gc standards. The amount of protein from the tissue was measured with a Bio-Rad Protein Assay kit (Bio-Rad Laboratories).
ManNAc or Ac5GlcNAcol was added to the culture media of primary cultured cells of myotubes derived from the DMRV model mice such that the final concentration of ManNAc was 10 mM and the final concentration of Ac5GlcNAcol was […]. […] The amount of NeuAc in the cultured cells was measured by the HPLC method described above (N=3).

[2] = in vivo; cited from earlier work
[3] = administration of free N-acetylneuraminic acid; cited from earlier work
[4] = test system: cells of animals having GNE gene mutation and normal animals; conditions: cited from earlier work
[5] = test system: primary cultured cells of myotubes; experiment: Cytotoxicity of reagent in myotube culture; type: cell-based; conditions: high concentration

SMILES: CC(=O)N[C@@H]1C(O)O[C@H](CO)[C@@H](O)[C@@H]1O (some centres unmarked) [ManNAc, N-acetylmannosamine, reference compound]
- amount of NeuAc in the myotubes [1]: increased the amount of NeuAc

SMILES: CC(=O)N[C@H]1[C@H]([C@H](O)[C@H](O)CO)OC(O)(C(=O)O)C[C@@H]1O (some centres unmarked) [NeuAc, N-acetylneuraminic acid]
- half-life in the blood of animals [2]: very short
- effect of increasing N-acetylneuraminic acid in ganglioside [3]: no particular effect
- incorporation into cells [4]: difficult to incorporate into cells

SMILES: CC(=O)N[C@@H]1C(OC(C)=O)O[C@H](COC(C)=O)[C@@H](OC(C)=O)[C@@H]1OC(C)=O (some centres unmarked) [Ac4ManNAc, Tetra-O-acetyl-N-acetylmannosamine]
- cytotoxicity [5]: has cytotoxicity when the Ac4ManNAc concentration is high
